Source: patent US20230159583A1, “COMPOUND FOR TREATING GOUT, PREPARATION METHOD THEREFOR, AND USE THEREOF” (Huazhong Pharmaceutical Co., Ltd., priority 2020, published 2023)
Read-outs that look alike come from different tables or passages of the source.

Experiments:
Format in all cases: in vivo
[1] = system: rat paw swelling induced by monosodium urate (MSU); experiment: rat paw swelling model induced by monosodium urate (MSU); settings: for inhibition in vivo at 90 mg/kg / inhibition in vivo at 0.36 mg/kg / inhibition in vivo at 1.8 mg/kg / inhibition in vivo at 9 mg/kg / change in vivo at 90 mg/kg: Rattus norvegicus, po; for inhibition in vivo at 90 mg/kg / inhibition in vivo at 0.36 mg/kg / inhibition in vivo at 1.8 mg/kg / inhibition in vivo at 9 mg/kg: 1 h, read-out: Swelling inhibition rate; for inhibition in vivo at 0.36 mg/kg: dosage 0.36 mg/kg; for inhibition in vivo at 1.8 mg/kg: dosage 1.8 mg/kg; for inhibition in vivo at 9 mg/kg: dosage 9 mg/kg; for change in vivo at 90 mg/kg: read-out: Swelling degree; for Mean volume of paw after administration: 1 h after onset of inflammation (50 μL 2% MSU)
Excerpt: Gout is a disease unique to human, and gouty arthritis is an inflammatory reaction caused by the deposition of monosodium urate (MSU) in local joint tissues. Since purine metabolism pathways in some mammals such as mice and rabbits are different from those in humans, it is impossible to construct a gouty arthritis model by the method of interfering with purine metabolism disorders, so the most direct method for causing gouty arthritis is to directly inject MSU into the joint cavity of the model animal. The model is only used for simulating local joint inflammation of gout, is suitable for observation of local arthritis symptoms, is a common method for screening anti-inflammatory effects of gout drugs at present, and has the advantages of stability, easy operation and the like. (Reference: Li Na, Hua Long, and Yuan Hui. Research progress of gout animal models [J]. Medical theory and practice, 2016(24).
The anti-gout effect of the compound prepared in the above Example was detected by using a rat paw swelling model induced by monosodium urate (MSU), and the control sample was methylprednisolone.
Experimental method: MSU was used as an inflammatory agent, injected subcutaneously into the hind paws of rats to cause paw swelling, and then the volume of the paws was measured, and the swelling rates and swelling inhibition rates of the treatment group and the control group were compared. On the day of the experiment, the volume of right hind paw (ml) of each rat was measured firstly, and then after the onset of inflammation, the volume of right hind paw was measured so that the difference of volume of paw before and after inflammation was swelling degree, and the swelling inhibition rate of paw (swelling inhibition rate %=(C−T)/C*100%); C=swelling rate of the control group %, and T=swelling rate of the treatment group) was calculated. This method is one of the commonly used methods for screening anti-inflammatory effects of gout drugs, and the model is stable and easy to operate.
(2) One week before the subcutaneous injection of MSU into the feet and soles of the rats, the rats were given different doses of the test drugs, and the drugs were given by gavage once a day, for seven consecutive days. The circumference of the right hind paw was marked and measured before the last administration, and the average value of the two measurements was taken as the standard. 1 h after the last administration, animals in other groups were given 50 μL of 2% MSU in addition to the blank control group, and the paw circumference was measured 1 h after the onset of inflammation. […]

[2] = system: carrageenan-induced mouse paw swelling; experiment: carrageenan-induced mouse paw swelling model; settings: for Circumference of the paw after administration: 180 min after onset of inflammation (0.5% carrageenan); for inhibition in vivo at 0.26 mg/kg / inhibition in vivo at 13 mg/kg / inhibition in vivo at 130 mg/kg / change in vivo at 130 mg/kg: Mus musculus, po, 3 h; for inhibition in vivo at 0.26 mg/kg: dosage 0.26 mg/kg; for inhibition in vivo at 0.26 mg/kg / inhibition in vivo at 13 mg/kg / inhibition in vivo at 130 mg/kg: read-out: Swelling inhibition rate; for inhibition in vivo at 13 mg/kg: dosage 13 mg/kg; for change in vivo at 130 mg/kg: read-out: Swelling degree
Method: The anti-inflammatory effects of the compounds prepared in the above Examples were detected using a carrageenan-induced mouse paw swelling model, and the control sample was methylprednisolone:
Carrageenan-induced mouse paw swelling model is a classical acute inflammation model commonly used for evaluating or screening anti-inflammatory effects of drugs. When carrageenan is injected into the paw of mice, a series of reactions similar to human acute inflammation such as local capillary dilatation, increased vascular permeability, exudation and edema can be caused, so the model can be widely used in the evaluation of new drugs.
Reference for experimental method: Yang Huan, Cheng Xiao, Wang Yuehua, Du Guanhua. Effects of esculin on the swelling of toes and inflammation induced by carrageenan in mice [J]. Chinese Journal of New Drugs, 2016(25):2322.
On the day of the experiment, the circumference of right hind paw (cm) of each mouse was measured firstly, and then, after the onset of inflammation, the circumference of right hind paw was measured so that the difference of the circumferences of the paws before and after inflammation was swelling degree, and the swelling inhibition rate of paw (swelling inhibition rate %=(C−T)/C*100%); C=swelling rate of the control group %, and T=swelling rate of the treatment group) was calculated.
(2) Gavage administration was performed once a day for seven consecutive days. The circumference of the right hind paw was marked and measured before the last administration, and the average value of the two measurements was taken as the standard. 30 min after the last administration, 20 μL/mice of 0.5% carrageenan was injected into the right hind ankle of the mice to induce inflammation, and the circumference of paw was measured 180 min after the onset of inflammation. […]

ICR mice = settings: p.o.
Method: The experiment was designed according to the “Technical Guideline for Acute Toxicity Test of Chemical Drugs” issued by the State Food and Drug Administration in March 2005. The doses administered were 4 g/kg, 4.91 g/kg, 6.14 g/kg, 7.68 g/kg, 9.6 g/kg, 12 g/kg, and 15 g/kg (the dose could be adjusted according to the actual test results), 12 ICR mice per dose group. If the administration volume is greater than 0.5 ml, it is better to perform the drug administration in two or more times (Note: according to the national standard GB 15193.3-2014, if multiple drug administrations are required, the time interval should be 4 h to 6 h each time, and the patient should be fasted on the day before drug administration).

[3] = SD rats, 90 mg/kg by gavage once a day for seven days, 1 h after onset of inflammation
[4] = rat, MSU-induced paw swelling, dosage 90 mg/kg
[5] = SD rats, 90 mg/kg by gavage once a day for seven days
[6] = ICR mice, 130 mg/kg by gavage once a day for seven days, 180 min after onset of inflammation
[7] = ICR mice, 130 mg/kg by gavage once a day for seven days
[8] = mouse, carrageenan-induced paw swelling
[9] = mouse, carrageenan-induced paw swelling, dosage 130 mg/kg

Structure (SMILES): CCC(=O)OC/C(=N\O)[C@@]1(O)[C@H](O)C[C@H]2[C@@H]3CCC4=CC(=NO)C=C[C@]4(C)[C@@]3(F)[C@@H](O)C[C@@]21C [Example 14, (2E)-2-((8S,9R,10S,11S,13S,14S,16R,17R)-9-fluoro-11,16,17-trihydroxy (hydroxyimino)-10,13-dimethyl-6,7,8,9,10,11,12,13,14,15,16,17-dodecahydro-3H-cyclopentane[α]phenanthrene-17-yl)-2-(hydroxyimino)ethyl propionate]
- inhibition in vivo at 90 mg/kg [1, 3]: 85.6%
- inhibition in vivo at 0.36 mg/kg ([1]; rat, MSU-induced paw swelling): 5.23%
- inhibition in vivo at 1.8 mg/kg ([1]; rat, MSU-induced paw swelling): 34.2%
- inhibition in vivo at 9 mg/kg ([1]; rat, MSU-induced paw swelling): 65.2%
- inhibition in vivo at 90 mg/kg [1, 4]: 86.3%
- change in vivo at 90 mg/kg [1, 3]: 47.5%
- Swelling value [1, 3]: 0.56 mL
- Mean volume of paw after administration [1, 5]: 1.74 mL
- Swelling value [2, 6]: 0.03 cm
- Circumference of the paw after administration [2, 7]: 1.45 cm
- inhibition in vivo at 0.26 mg/kg [2, 8]: 20.3%
- inhibition in vivo at 13 mg/kg [2, 8]: 49.2%
- inhibition in vivo at 130 mg/kg [2, 9]: 92.1%
- change in vivo at 130 mg/kg [2, 6]: 2.11%
- inhibition in vivo at 130 mg/kg [2, 6]: 89.1%
- Mortality (ICR mice; 4 g/kg): 0/12
- Mortality (ICR mice; 4.91 g/kg): 0/12
- Mortality (ICR mice; 6.14 g/kg): 0/12
- Mortality (ICR mice; 7.68 g/kg): 0/12
- Mortality (ICR mice; 9.6 g/kg): 1/12
- Mortality (ICR mice; 12 g/kg): 1/12
- Mortality (ICR mice; 15 g/kg): 3/12

Structure (SMILES): CC(=O)OC/C(=N\O)[C@@]1(O)CC[C@H]2[C@@H]3C[C@H](C)C4=CC(=NO)C=C[C@]4(C)[C@H]3[C@@H](O)C[C@@]21C [Example 2, (2E)-2-((6S,8S,9S,10R,11S,13S,14S,17R)-11,17-dihydroxy-3-(hydroxyimino)-6,10,13-trimethyl-6,7,8,9,10,11,12,13,14,15,16,17-dodecahydro-3H-cyclopentane[α]phenanthrene-17-yl)-2-(hydroxyimino)ethyl acetate]
- inhibition in vivo at 90 mg/kg [1, 3]: 99%
- inhibition in vivo at 0.36 mg/kg ([1]; rat, MSU-induced paw swelling): 15.1%
- inhibition in vivo at 1.8 mg/kg ([1]; rat, MSU-induced paw swelling): 32.1%
- inhibition in vivo at 9 mg/kg ([1]; rat, MSU-induced paw swelling): 52.1%
- inhibition in vivo at 90 mg/kg [1, 4]: 98.2%
- change in vivo at 90 mg/kg [1, 3]: 3.23%
- Swelling value [1, 3]: 0.04 mL
- Mean volume of paw after administration [1, 5]: 1.28 mL
- Swelling value [2, 6]: 0.01 cm
- Circumference of the paw after administration [2, 7]: 1.43 cm
- inhibition in vivo at 0.26 mg/kg [2, 8]: 15.1%
- inhibition in vivo at 13 mg/kg [2, 8]: 63.1%
- inhibition in vivo at 130 mg/kg [2, 9]: 96.2%
- change in vivo at 130 mg/kg [2, 6]: 0.7%
- inhibition in vivo at 130 mg/kg [2, 6]: 96.4%
- Mortality (ICR mice; 4 g/kg): 0/12
- Mortality (ICR mice; 4.91 g/kg): 0/12
- Mortality (ICR mice; 6.14 g/kg): 0/12
- Mortality (ICR mice; 7.68 g/kg): 0/12
- Mortality (ICR mice; 9.6 g/kg): 1/12
- Mortality (ICR mice; 12 g/kg): 4/12
- Mortality (ICR mice; 15 g/kg): 6/12

Structure (SMILES): CCON=C1C=C[C@@]2(C)C(=C1)[C@@H](C)C[C@@H]1[C@@H]2[C@@H](O)C[C@@]2(C)[C@H]1CC[C@]2(O)/C(CO)=N/OCC [Example 9, (6S,8S,9S,10R,11S,13S,14S,17R,E)-17-((E)-1-(ethoxysimino)-2-hydroxyethyl)-11,17-dihydroxy-6,10,13-trimethyl-6,7,8,9,10,11,12,13,14,15,16,17-dodecahydro-3H-cyclopentane[α]phenanthrene-3-ketoO-ethyl oxime]
- Mortality (ICR mice; 4 g/kg): 0/12
- Mortality (ICR mice; 4.91 g/kg): 0/12
- Mortality (ICR mice; 6.14 g/kg): 0/12
- Mortality (ICR mice; 7.68 g/kg): 0/12
- Mortality (ICR mice; 9.6 g/kg): 0/12
- Mortality (ICR mice; 12 g/kg): 0/12
- Mortality (ICR mice; 15 g/kg): 2/12

Structure (SMILES): C[C@]12C=CC(=NO)C=C1CC[C@@H]1[C@@H]2[C@@H](O)C[C@@]2(C)[C@H]1CC[C@]2(O)/C(CO)=N/O [Example 3, (8S,9S,10R,11S,13S,14S,17R)-11,17-dihydroxy-17-((E)-2-hydroxy (hydroxyimino)ethyl)-10,13-dimethyl-6,7,8,9,10,11,12,13,14,15,16,17-dodecahydro-3H-cyclopentane[α]phenanthrene-3-one oxime]
- inhibition in vivo at 90 mg/kg [1, 3]: 80.5%
- inhibition in vivo at 0.36 mg/kg ([1]; rat, MSU-induced paw swelling): 10.2%
- inhibition in vivo at 1.8 mg/kg ([1]; rat, MSU-induced paw swelling): 25.2%
- inhibition in vivo at 9 mg/kg ([1]; rat, MSU-induced paw swelling): 32.1%
- inhibition in vivo at 90 mg/kg [1, 4]: 82.1%
- change in vivo at 90 mg/kg [1, 3]: 64.2%
- Swelling value [1, 3]: 0.77 mL
- Mean volume of paw after administration [1, 5]: 1.97 mL
- Swelling value [2, 6]: 0.05 cm
- Circumference of the paw after administration [2, 7]: 1.53 cm
- inhibition in vivo at 0.26 mg/kg [2, 8]: 9.12%
- inhibition in vivo at 13 mg/kg [2, 8]: 42.3%
- inhibition in vivo at 130 mg/kg [2, 9]: 78.2%
- change in vivo at 130 mg/kg [2, 6]: 3.38%
- inhibition in vivo at 130 mg/kg [2, 6]: 82.5%
- Mortality (ICR mice; 4 g/kg): 0/12
- Mortality (ICR mice; 4.91 g/kg): 0/12
- Mortality (ICR mice; 6.14 g/kg): 0/12
- Mortality (ICR mice; 7.68 g/kg): 0/12
- Mortality (ICR mice; 9.6 g/kg): 0/12
- Mortality (ICR mice; 12 g/kg): 0/12
- Mortality (ICR mice; 15 g/kg): 1/12

Structure (SMILES): C[C@H]1C[C@@H]2[C@H]([C@@H](O)C[C@@]3(C)[C@H]2CC[C@]3(O)C(=O)CO)[C@@]2(C)C=CC(=O)C=C12 [Methylprednisolone, methylprednisolone, reference compound]
- inhibition in vivo at 90 mg/kg [1, 3]: 53.8%
- inhibition in vivo at 0.36 mg/kg ([1]; rat, MSU-induced paw swelling): 12.3%
- inhibition in vivo at 1.8 mg/kg ([1]; rat, MSU-induced paw swelling): 17.6%
- inhibition in vivo at 9 mg/kg ([1]; rat, MSU-induced paw swelling): 43.5%
- inhibition in vivo at 90 mg/kg [1, 4]: 55.4%
- change in vivo at 90 mg/kg [1, 3]: 152%
- Swelling value [1, 3]: 1.87 mL
- Mean volume of paw after administration [1, 5]: 3.1 mL
- Swelling value [2, 6]: 0.15 cm
- Circumference of the paw after administration [2, 7]: 1.63 cm
- inhibition in vivo at 0.26 mg/kg [2, 8]: 12.1%
- inhibition in vivo at 13 mg/kg [2, 8]: 31.4%
- inhibition in vivo at 130 mg/kg [2, 9]: 51.2%
- change in vivo at 130 mg/kg [2, 6]: 10.1%
- inhibition in vivo at 130 mg/kg [2, 6]: 47.6%
